From the NIST ThermoML archive (doi:10.1021/je400207t)
Several values for one entry are separate records, joined by “and”; a condition that tells them apart may be missing. Equal values may be shown once.

Assays:
[1] = for vapor or sublimation pressure: Calculated from knudsen effusion weight loss
[2] = Molar enthalpy of transition or fusion; settings: DSC

O[C@@H]1[C@@H](O)[C@@H]2OC[C@@H](O2)[C@H]1O [1,6-anhydro-β-D-glucopyranose]
[1], Crystal 2
Settings | vapor or sublimation pressure
361.13 K | 5.35e-05 kPa and 6.29e-05 kPa and 5.88e-05 kPa
363.14 K | 7.32e-05 kPa and 7.78e-05 kPa
365.22 K | 0.000102 kPa and 0.000101 kPa and 9.67e-05 kPa
367.16 K | 0.00012 kPa and 0.000119 kPa and 0.000113 kPa
369.14 K | 0.000164 kPa and 0.000144 kPa and 0.000152 kPa
371.15 K | 0.000183 kPa and 0.000192 kPa
373.15 K | 0.000247 kPa and 0.000231 kPa
375.13 K | 0.000317 kPa and 0.00028 kPa and 0.000289 kPa
377.22 K | 0.000407 kPa and 0.000368 kPa and 0.000396 kPa
379.15 K | 0.000476 kPa and 0.000472 kPa and 0.000458 kPa

Settings | Molar enthalpy of transition or fusion, Crystal 1 [kcal/mol] | Molar enthalpy of transition or fusion, Crystal 2 [kcal/mol] | Normal melting temperature, Crystal 1, DTA [°C] | Triple point temperature, Crystal 2, DTA [K]
[1] | – | – | 182.2 | 384.9
[2] | 0.789 | 5.54 | – | –
